In ChEMBL document CHEMBL4602644, “Synthesis of PJOV56, a new quinoxalinyl-hydrazone derivative able to induce autophagy and apoptosis in colorectal cancer cells, and related compounds” (Bioorg Med Chem Lett, 2020) one finds inhibition of growth, Activity and IC50 data, which are given here for one compound.

Active and inactive are the calls of the source. The calls are words filed in the database; no cut-off is given here.

The subject of test [1] is HL-60. In words: Cytotoxicity against human HL60 cells assessed as cell growth inhibition at 5 ug/ml measured after 72 hrs by MTT assay relative to control. The test is classed as functional. Conditions: HL-60, 72 h, read-out: GI.
In test [2] the test system is HCT-116. In words: Induction of apoptosis in human HCT116 cells assessed as live cells at 1.5 uM measured after 48 hrs by annexinV-PE/7-AAD staining based flow cytometric analysis (reference value: 91.42 %). The test is classed as functional. Background: In flow cytometry, cells or beads pass a laser one at a time.
In test [3] the test system is HCT-116. In words: Induction of apoptosis in human HCT116 cells assessed as early apoptotic cells at 1.5 uM measured after 48 hrs by annexinV-PE/7-AAD staining based flow cytometric analysis (reference value: 6.53 %). The test is classed as functional.
Another test has as its system L929. In words: Cytotoxicity against mouse L929 cells assessed as reduction in cell viability measured after 72 hrs by MTT assay. The test is classed as cell-based. Conditions: L929, 72 h.
The subject of test [4] is HCT-116. In words: Induction of morphological changes in human HCT116 cells assessed as increase in size of intracellular vesicles at 1.5 to 6 uM measured after 48 hrs by propidium iodide staining based flow cytometry. The test is classed as functional, cell-based.
For test [5], the system named is HCT-116. In words: Induction of apoptosis in human HCT116 cells assessed as early apoptotic cells at 6 uM measured after 48 hrs by annexin-V staining based flow cytometry (reference value: 0.34 %). The test is classed as functional.
The subject of test [6] is HCT-116. In words: Induction of morphological changes in human HCT116 cells assessed as increase in number of intracellular vesicles at 1.5 to 6 uM measured after 48 hrs by propidium iodide staining based flow cytometry. The test is classed as functional, cell-based.
The subject of test [7] is HCT-116. In words: Cytotoxicity against human HCT116 cells assessed as reduction in cell viability measured after 72 hrs by MTT assay. To be noted: HCT-116, 72 h. The test is classed as functional, cell-based.
Test [8] has as its system HCT-116. In words: Induction of apoptosis in human HCT116 cells assessed as necrotic cells at 6 uM measured after 48 hrs by annexinV-PE/7-AAD staining based flow cytometric analysis (reference value: 0.16 %). The test is classed as functional.
In test [9] the test system is HCT-116. In words: Induction of apoptosis in human HCT116 cells assessed as […] in cleaved caspase 7 expression at 3 to 6 uM measured after 48 hrs by Western blot analysis. The test is classed as functional, cell-based. On the technique in general: Immunoblotting shows a protein as a band on a membrane.
The subject of test [10] is HL-60. In words: Cytotoxicity against human HL60 cells assessed as reduction in cell viability measured after 72 hrs by MTT assay. The test is classed as functional, cell-based. To be noted: HL-60, 72 h. On the technique in general: Tetrazolium dyes change colour on reduction, which living cells bring about.
Test [11] deals with HCT-116. In words: Induction of apoptosis in human HCT116 cells assessed as necrotic cells at 1.5 uM measured after 48 hrs by annexinV-PE/7-AAD staining based flow cytometric analysis (reference value: 0.16 %). The test is classed as functional.
In test [12] the test system is HCT-116. In words: Cell cycle arrest in human HCT116 cells assessed as accumulation at G0/G1 phase at 3 uM measured after 48 hrs by propidium iodide staining based flow cytometry (reference value: 41.67 %). The test is classed as functional.
In test [13] the test system is HCT-116. In words: Induction of apoptosis in human HCT116 cells assessed as live cells at 6 uM measured after 48 hrs by annexinV-PE/7-AAD staining based flow cytometric analysis (reference value: 91.42 %). The test is classed as functional.
The subject of a further test is MCF7. In words: Cytotoxicity against human MCF7 cells assessed as reduction in cell viability measured after 72 hrs by MTT assay. The test is classed as functional, cell-based. To be noted: MCF7, 72 h.
Test [14] concerns HCT-116. In words: Cell cycle arrest in human HCT116 cells assessed as accumulation at G0/G1 phase at 1.5 uM measured after 48 hrs by propidium iodide staining based flow cytometry (reference value: 41.67 %). The test is classed as functional.
Test [15] relates to HCT-116. In words: Induction of apoptosis in human HCT116 cells assessed as late apoptotic cells at 6 uM measured after 48 hrs by annexinV-PE/7-AAD staining based flow cytometric analysis (reference value: 0.18 %). The test is classed as functional.

For `C(=N\Nc1cnc2ccccc2n1)/c1ccccn1`, the inhibition of growth at 5 µg/mL in the test with HL-60 [1] was found to be 94.8%. Besides, the Activity is 89.63% in the test on HCT-116 [2]; 5.61% with HCT-116 [3]; 25.6% with HCT-116 [5]; 7.49% with HCT-116 [8]; 0.63% with HCT-116 [11]; 14.45% with HCT-116 [12]. For the same compound, the Activity with HCT-116 [13] worked out at 66.2%; in the test with HCT-116 [14] it was 35.69%; in the test with HCT-116 [15], 17.9%. The 50% inhibitory concentration (IC50) in the test with L929 is 2270 nM; with HCT-116 [7] it was 1830 nM; in the test with HL-60 [10], 820 nM; in the test on MCF7, 7000 nM. Further, the outcome in the test on HCT-116 [4], with HCT-116 [6] and with HCT-116 [9] was Active.

What is called IC50 is the concentration that gives 50% inhibition.
